For experiment [1], the species on record is Rattus norvegicus. The experiment can be described thus: Contractile force determined in rat atria. The format is functional.
The species entered for experiment [2] is Rattus norvegicus. The experiment can be described thus: Functional refractory period (FRP) determined in rat atria.
[3] abbreviates: Rattus norvegicus, read-out: EC25.

Experimental findings from ChEMBL document CHEMBL1159190, “Determination of the active conformation of 6-amino--[(4-diphenylmethyl-1-piperazinyl)methyl-9H-purine]-9-ethanol: a positive inotropic agent” (1993) are described below.

The EC25 is the concentration at which the effect reaches the 25% level.

In the case of `Nc1ncnc2c1ncn2C1CCCC(N2CCN(C(c3ccccc3)c3ccccc3)CC2)C1O` (stereo in doubt), the figures for the EC25 in experiment [1] and in experiment [2] were 1.5 µM and 0.9 µM, respectively.
Taken in the same sequence, the figures for `Nc1ncnc2c1ncn2C1CCCC(N2CCN(C(c3ccccc3)c3ccccc3)CC2)C1O` (cis isomer) were 20 µM and 17 µM.
Consider `Nc1ncnc2c1ncn2C[C@@]1(O)CC[C@H]2CN(C(c3ccccc3)c3ccccc3)CCN2C1`, for which the EC25 in experiment [1] (setting [3]) and in experiment [2] (setting [3]) was 15 µM each time.
As to `Nc1ncnc2c1ncn2CC(O)CN1CCN(C(c2ccccc2)c2ccccc2)CC1` (configuration not stated), the EC25 in experiment [1] (setting [3]) turned out to be 0.5 µM; in experiment [2] (setting [3]), 0.2 µM.
In the case of `Nc1ncnc2c1ncn2C1CCCC(N2CCN(C(c3ccccc3)c3ccccc3)CC2)C1O` (trans isomer), the EC25 in experiment [1] was 1.2 µM; in experiment [2], 9 µM.
Take `Nc1ncnc2c1ncn2C[C@]1(O)CC[C@H]2CN(C(c3ccccc3)c3ccccc3)CCN2C1`: the results for the EC25 in experiment [1] (setting [3]) and in experiment [2] (setting [3]) were 6.5 µM and 1.8 µM, respectively.
